In the NIST ThermoML archive (doi:10.1021/je049559v):
Where “and” joins values, the source holds several entries; their conditions need not be identical. Equal entries are not always repeated.

Details: Liquid; for viscosity: Capillary tube (Ostwald / Ubbelohde) method; for mass density: Vibrating tube method

COCOC [dimethoxymethane]
Details	mass density [kg/m3]	viscosity
218.09 K	–	1.263 mPa·s
223.09 K	–	1.099 mPa·s
228.1 K	–	0.9649 mPa·s
228.11 K	–	0.9648 mPa·s
233.1 K	–	0.8557 mPa·s and 0.8556 mPa·s
233.16 K	935.5	–
238.11 K	–	0.7648 mPa·s
243.14 K	–	0.6886 mPa·s
243.15 K	–	0.6885 mPa·s
243.16 K	923.8	–
248.14 K	–	0.6248 mPa·s
253.13 K	–	0.5705 mPa·s
253.14 K	–	0.5705 mPa·s
253.16 K	912.4	–
258.12 K	–	0.524 mPa·s
258.15 K	–	0.5238 mPa·s
263.07 K	–	0.4841 mPa·s
263.09 K	–	0.4839 mPa·s
263.15 K	899.6	–
268.09 K	–	0.4489 mPa·s
273.05 K	–	0.4183 mPa·s
273.15 K	886	–
278.05 K	–	0.3912 mPa·s
283.1 K	–	0.3669 mPa·s
283.15 K	872.3	–
288.17 K	–	0.3452 mPa·s and 0.3451 mPa·s
293.09 K	–	0.3262 mPa·s
293.15 K	858.1	–
298.12 K	–	0.3086 mPa·s
298.13 K	–	0.3086 mPa·s
303.12 K	–	0.2927 mPa·s
303.13 K	–	0.2927 mPa·s
303.15 K	842.8	–
308.16 K	–	0.2781 mPa·s
308.17 K	–	0.2781 mPa·s
313.15 K	827.9	–
313.16 K	–	0.2647 mPa·s
318.16 K	–	0.2524 mPa·s
318.17 K	–	0.2524 mPa·s
323.15 K	–	0.241 mPa·s and 0.2409 mPa·s
323.16 K	814.1	–
328.14 K	–	0.2303 mPa·s
333.14 K	–	0.2202 mPa·s
333.15 K	800	0.2202 mPa·s
338.15 K	–	0.2107 mPa·s
343.15 K	785.2	0.2017 mPa·s
348.16 K	–	0.1931 mPa·s
353.12 K	–	0.185 mPa·s
353.13 K	–	0.185 mPa·s
353.16 K	770.8	–
358.16 K	–	0.1771 mPa·s
363.11 K	755.9	–
363.15 K	–	0.1696 mPa·s
368.14 K	–	0.1624 mPa·s
368.16 K	–	0.1623 mPa·s
373.14 K	–	0.1554 mPa·s
378.15 K	–	0.1486 mPa·s
383.15 K	–	0.142 mPa·s
383.16 K	–	0.142 mPa·s
